For one test, the target named is 5-HT2B (Homo sapiens, UniProt P41595). Kind of test: SelectScreen cell-based GPCR assay, 5-HT2B. Particulars: 10 µM. The source says:
(§1) Profiling of compound activity versus a select panel of diverse GPCRs was undertaken by ThermoFisher Scientific (United Kingdom) via their SelectScreen cell-based GPCR assay panel. Detailed experimental protocols on this assay platform can be found at (https://www.thermofisher.com/content/dam/LifeTech/migration/en/filelibrary/services/discovery-research/pdfs.par.36410.file.dat/sscg-brochure.pdf). Briefly these assays detect agonist or antagonist activity using cell lines with the GPCR of interest over-expressed, driving the expression of a reporter gene encompassing a mammalian-optimized Beta-lactamase. Test compounds are incubated with the specific cell lines at the defined final concentration for 5 or 16 h (depending on the cell line specifics) before quantification of effect.

A further test addresses delta opioid (Homo sapiens, UniProt P41143). Kind of test: SelectScreen cell-based GPCR assay, delta opioid. Particulars: 10 µM.
Text: as §1

Test [1] concerns human bronchial smooth muscle. Particulars: cited from earlier work.
The conditions of test [2]: cited from earlier work.
Test [3] relates to human vascular smooth muscle preparations. The settings on record: ref Papp et al., 2019; Danahay et al., 2020b; cited from earlier work.

Sequence of delta opioid (P41143 whole entry): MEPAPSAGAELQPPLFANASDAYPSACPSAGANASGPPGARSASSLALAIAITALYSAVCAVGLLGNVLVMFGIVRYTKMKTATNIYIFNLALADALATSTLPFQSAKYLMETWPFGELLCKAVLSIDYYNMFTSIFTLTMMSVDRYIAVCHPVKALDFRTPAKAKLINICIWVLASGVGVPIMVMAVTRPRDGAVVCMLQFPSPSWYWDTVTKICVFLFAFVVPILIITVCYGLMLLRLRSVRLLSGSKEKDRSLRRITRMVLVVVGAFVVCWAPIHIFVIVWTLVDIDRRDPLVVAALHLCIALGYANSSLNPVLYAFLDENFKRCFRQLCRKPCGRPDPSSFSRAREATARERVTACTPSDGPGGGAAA
Sequence of 5-HT2B (P41595 whole entry): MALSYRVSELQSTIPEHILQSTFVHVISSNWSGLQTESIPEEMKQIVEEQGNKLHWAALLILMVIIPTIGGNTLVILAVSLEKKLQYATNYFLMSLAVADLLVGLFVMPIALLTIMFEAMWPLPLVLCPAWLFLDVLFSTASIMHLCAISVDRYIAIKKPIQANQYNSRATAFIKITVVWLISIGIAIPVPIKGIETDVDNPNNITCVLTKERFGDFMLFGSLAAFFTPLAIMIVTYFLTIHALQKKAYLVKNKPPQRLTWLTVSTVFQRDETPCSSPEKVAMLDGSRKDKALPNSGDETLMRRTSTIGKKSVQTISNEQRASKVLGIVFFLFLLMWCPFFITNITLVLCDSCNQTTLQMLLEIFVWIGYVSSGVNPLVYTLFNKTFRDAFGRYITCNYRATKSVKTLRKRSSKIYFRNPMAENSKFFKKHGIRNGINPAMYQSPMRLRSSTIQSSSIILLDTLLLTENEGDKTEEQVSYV

In the case of `COc1ccccc1/C=N/NC(=O)COc1ccc(Cl)cc1C` [Ani9], the “inhibition of 5-HT2B” value at 5-HT2B is reported as at least 50%. In addition, the “inhibition of delta opioid” value on delta opioid is recorded as at least 50%.
For ETX001, in test [1], the “effect on freshly isolated human bronchial smooth muscle tone” value is recorded as “no effect”. The “effect on lung function in vivo” value in test [2] is “no effect”.
With `CCc1c(C)nc(SCC(=O)Nc2nc(-c3ccc(OC)cc3)cs2)[nH]c1=O` [T16Ainh-A01], the “activity in human vascular smooth muscle preparations” value in test [3] is “failed to show activity”.

The values above are taken from publication PMC10025480 (Frontiers in Pharmacology, 2023).
